The subject of assay [1] is SKBR3 (PI3Kα wild type) cells. Description: CellTiter-Glo 2.0 luminescent cell viability assay, 72 hours, SKBR3 cells. The assay is classed as cell-based. As to conditions: Homo sapiens, SK-BR-3, 72 h, SKBR3 (PI3Kα wild type) cells, CellTiter-Glo, approximately 72 hours; read-out: SKBR3 (WT) Viability IC50. As to the method:
(§1) The ability of a compound of Formula (I) to decrease the viability of cells was measured using CellTiter-Glo 2.0 (CTG) Luminescent Cell Viability Assay (#G9241) obtained from Promega (Madison, WI).
To prepare assay plates for viability assays, cells were trypsinized, resuspended in fresh media, and viable cells were counted utilizing trypan blue exclusion.
(§2) Assay day 1, cells were dosed using an Echo Liquid Handler (Beckman Coulter) with compounds at a 10 um starting concentration and serially diluted (1:4) for a total of 10 concentrations. Cells were incubated for approximately 72 hours with the compounds (solubilized in DMSO) at 37° C. After 72 hours of treatment, cell plates were equilibrated to room temperature before adding 15 μl of CTG to each well, plates were then covered in aluminum foil to protect from light, incubated at room temperature for 30 minutes on a microtiter plate shaker, and luminescence readings were collected using a CLARIOstar microplate reader (BMG Labtech, Germany). Percent of vehicle control values were plotted as log (inhibitor) vs. response-Variable slope (four parameters) for curve fitting and IC50 values were determined using XLfit.

Assay [2] concerns T47D (PI3Kα H1047R mutant) cells. Briefly: CellTiter-Glo 2.0 luminescent cell viability assay, 72 hours, T47D cells. As to conditions: T47D (PI3Kα H1047R mutant) cells, CellTiter-Glo, approximately 72 hours, read-out: T47D (H1047R mutant) Viability IC50. The assay is classed as cell-based. How it is done: This Example illustrates that exemplary compounds of the present invention decrease the viability of cells.
as §1
To prepare assay plates for viability assays, cells were trypsinized, resuspended in fresh media, and viable cells were counted utilizing trypan blue exclusion. T47D, SKBR3, or MKN1 cells were seeded at 1000 cells in 30 μl per well in a solid white flat bottom 384 cell culture plate (Perkin Elmer #6007680) and incubated at 37° C. overnight.
as §2

Where two headings read alike, the source gives them in different places.

For `Cc1cc([C@@H](C)Nc2ccccc2C(=O)O)c2nc(N3CC4CC4(C(F)(F)F)C3)c(C)c(=O)n2c1` (stereo partly drawn) [Example 10-145, 2-(((1R)-1-(3,7-dimethyl-4-oxo-2-(1-(trifluoromethyl)-3-azabicyclo[3.1.0]hexan-3-yl)-4H-pyrido[1,2-a]pyrimidin-9-yl)ethyl)amino)benzoic acid], the IC50 in assay [1] was above 10 µM; in assay [2] (Homo sapiens, T47D, 72 h), 0.0985 µM.

With `Cc1cc(C(C)Nc2ccccc2C(=O)O)c2nc(-c3cn[nH]c3)cc(=O)n2c1` (centres unmarked) [Example 11-373, 2-((1-(7-methyl-4-oxo-2-(1H-pyrazol-4-yl)-4H-pyrido[1,2-a]pyrimidin-9-yl)ethyl)amino)benzoic acid], the IC50 is above 10 µM in assay [1] and 7.64 µM in assay [2] (Homo sapiens, T47D, 72 h).

Regarding `Cc1cc([C@@H](C)Nc2ccccc2C(=O)O)c2nc(N[C@@H](C)c3cccnc3)c(C#N)c(=O)n2c1` [Example 11-52, 2-(((R)-1-(3-cyano-7-methyl-4-oxo-2-(((S)-1-(pyridin-3-yl)ethyl)amino)-4H-pyrido[1,2-a]pyrimidin-9-yl)ethyl)amino)benzoic acid], the IC50 in assay [1] is above 10 µM; in assay [2] (Homo sapiens, T47D, 72 h) it was 6.64 µM.

On to `Cc1cc(C(C)Nc2ccccc2C(=O)O)c2nc(-c3cccc(C#N)c3)cc(=O)n2c1` (centres unmarked) [Example 11-398, 2-((1-(2-(3-cyanophenyl)-7-methyl-4-oxo-4H-pyrido[1,2-a]pyrimidin-9-yl)ethyl)amino)benzoic acid], for which the IC50 in assay [1] was above 10 µM; in assay [2] (Homo sapiens, T47D, 72 h), above 10 µM.

For the compound `Cc1cc([C@@H](C)Nc2ccccc2C(=O)O)c2nc(N3CCN(c4ccc(C(F)(F)F)cc4C#N)CC3C)c(C#N)c(=O)n2c1` (stereo partly drawn) [Example 11-78, 2-(((1R)-1-(3-cyano-2-(4-(2-cyano-4-(trifluoromethyl)phenyl)-2-methylpiperazin-1-yl)-7-methyl-4-oxo-4H-pyrido[1,2-a]pyrimidin-9-yl)ethyl)amino)benzoic acid], the IC50 in assay [1] was above 10 µM; in assay [2] (Homo sapiens, T47D, 72 h), 0.256 µM.

Take `CNC(=O)c1ccc(N2CCN(c3nc4c([C@@H](C)Nc5ccccc5C(=O)O)cc(C)cn4c(=O)c3C)CC2)cc1` [Example 11-249, (R)-2-((1-(3,7-dimethyl-2-(4-(4-(methylcarbamoyl)phenyl)piperazin-1-yl)-4-oxo-4H-pyrido[1,2-a]pyrimidin-9-yl)ethyl)amino)benzoic acid]: the IC50 in assay [1] is above 10 µM; in assay [2] (Homo sapiens, T47D, 72 h) it was 0.118 µM.

Consider `Cc1ccc(C#N)c(N2CCN(c3nc4c([C@@H](C)Nc5ccccc5C(=O)O)cc(C)cn4c(=O)c3C)[C@H](C)C2)c1` [Example 11-74, 2-(((R)-1-(2-((R)-4-(2-cyano-5-methylphenyl)-2-methylpiperazin-1-yl)-3,7-dimethyl-4-oxo-4H-pyrido[1,2-a]pyrimidin-9-yl)ethyl)amino)benzoic acid], for which the IC50 in assay [1] is above 10 µM; in assay [2] (Homo sapiens, T47D, 72 h), 1.98 µM.

In the case of `Cc1cc([C@@H](C)Nc2ccccc2C(=O)O)c2nc(N3CCn4cncc4C3)c(C)c(=O)n2c1` [Example 11-430, (R)-2-((1-(2-(5,6-dihydroimidazo[1,5-a]pyrazin-7(8H)-yl)-3,7-dimethyl-4-oxo-4H-pyrido[1,2-a]pyrimidin-9-yl)ethyl)amino)benzoic acid], the IC50 in assay [1] is above 10 µM; in assay [2] (Homo sapiens, T47D, 72 h), 4.67 µM.

Regarding `Cc1cc([C@@H](C)Nc2ccc(Cl)nc2C(=O)O)c2nc(N3Cc4ccccc4C3)c(C)c(=O)n2c1` [Example 11-360, (R)-6-chloro-3-((1-(2-(isoindolin-2-yl)-3,7-dimethyl-4-oxo-4H-pyrido[1,2-a]pyrimidin-9-yl)ethyl)amino)picolinic acid], the IC50 in assay [1] turned out to be 8.26 µM; in assay [2], 1.09 µM.

On to `Cc1cc([C@@H](C)Nc2cccc(F)c2C(=O)O)c2nc(N3Cc4ccccc4C3)c(C#N)c(=O)n2c1` [Example 11-307, (R)-2-((1-(3-cyano-2-(isoindolin-2-yl)-7-methyl-4-oxo-4H-pyrido[1,2-a]pyrimidin-9-yl)ethyl)amino)-6-fluorobenzoic acid], for which the 50% inhibitory concentration (IC50) in assay [1] is above 10 µM; in assay [2] (Homo sapiens, T47D, 72 h), 0.379 µM.

For `Cc1cc(C(C)Nc2ccccc2C(=O)O)c2nc(Oc3ccccc3)cc(=O)n2c1` (centres unmarked) [Example 11-341, 2-((1-(7-methyl-4-oxo-2-phenoxy-4H-pyrido[1,2-a]pyrimidin-9-yl)ethyl)amino)benzoic acid], the concentration for half-maximal inhibition (IC50) in assay [1] was above 10 µM; in assay [2] (Homo sapiens, T47D, 72 h), above 10 µM.

Turning to `Cc1cc([C@H](C)Nc2ccccc2)c2nc(N3Cc4ccccc4C3)c(C#N)c(=O)n2c1` [Example 11-300, (S)-2-(isoindolin-2-yl)-7-methyl-4-oxo-9-(1-(phenylamino)ethyl)-4H-pyrido[1,2-a]pyrimidine-3-carbonitrile], the IC50 is above 10 µM in assay [1] and 3.71 µM in assay [2] (Homo sapiens, T47D, 72 h).

For the compound `Cc1cc([C@@H](C)Nc2ccccc2C(=O)O)c2nc(NC[C@H]3CCOC3)c(C#N)c(=O)n2c1` [Example 11-193, 2-(((R)-1-(3-cyano-7-methyl-4-oxo-2-((((R)-tetrahydrofuran-3-yl)methyl)amino)-4H-pyrido[1,2-a]pyrimidin-9-yl)ethyl)amino)benzoic acid], the IC50 in assay [1] was above 10 µM; in assay [2] (Homo sapiens, T47D, 72 h), 1.2 µM.

In the case of `Cc1cc(C(C)Nc2ccccc2C(=O)O)c2nc(N3C4CCC3CC4)cc(=O)n2c1` (centres unmarked) [Example 11-344, 2-((1-(2-(7-azabicyclo[2.2.1]heptan-7-yl)-7-methyl-4-oxo-4H-pyrido[1,2-a]pyrimidin-9-yl)ethyl)amino)benzoic acid], the IC50 was above 10 µM in assay [1] and 2.15 µM in assay [2] (Homo sapiens, T47D, 72 h).

As to `Cc1cc(C(C)Nc2ccccc2C(=O)O)c2nc(N3CCCC(O)C3)cc(=O)n2c1` (centres unmarked) [Example 11-343, 2-((1-(2-(3-hydroxypiperidin-1-yl)-7-methyl-4-oxo-4H-pyrido[1,2-a]pyrimidin-9-yl)ethyl)amino)benzoic acid], the half-inhibitory concentration (IC50) in assay [1] is above 10 µM; in assay [2] (Homo sapiens, T47D, 72 h), above 10 µM.

Take `Cc1cc([C@@H](C)Nc2ccccc2C(=O)O)c2nc(N3CC(F)(F)[C@H]3C)c(C)c(=O)n2c1` [Example 11-96, 2-(((R)-1-(2-((R)-3,3-difluoro-2-methylazetidin-1-yl)-3,7-dimethyl-4-oxo-4H-pyrido[1,2-a]pyrimidin-9-yl)ethyl)amino)benzoic acid]: the IC50 in assay [1] is above 10 µM; in assay [2] (Homo sapiens, T47D, 72 h), 0.159 µM.

`Cc1cc([C@@H](C)Nc2ccccc2C(=O)O)c2nc(N3CC4CC(C)(C)C4C3)c(C)c(=O)n2c1` (stereo partly drawn) [Example 11-24, 2-(((1R)-1-(2-(6,6-dimethyl-3-azabicyclo[3.2.0]heptan-3-yl)-3,7-dimethyl-4-oxo-4H-pyrido[1,2-a]pyrimidin-9-yl)ethyl)amino)benzoic acid]: the IC50 was above 10 µM in assay [1] and 0.123 µM in assay [2] (Homo sapiens, T47D, 72 h).

For `COC1CN(c2nc3c([C@@H](C)Nc4ccccc4C(=O)O)cc(C)cn3c(=O)c2C#N)C1` [Example 11-111, (R)-2-((1-(3-cyano-2-(3-methoxyazetidin-1-yl)-7-methyl-4-oxo-4H-pyrido[1,2-a]pyrimidin-9-yl)ethyl)amino)benzoic acid], the IC50 is above 10 µM in assay [1] and 0.285 µM in assay [2] (Homo sapiens, T47D, 72 h).

For `Cc1cc([C@@H](C)Nc2ccccc2C(=O)O)c2nc(N3CC[C@H]3C)c(C)c(=O)n2c1` [Example 11-100, 2-(((R)-1-(3,7-dimethyl-2-((R)-2-methylazetidin-1-yl)-4-oxo-4H-pyrido[1,2-a]pyrimidin-9-yl)ethyl)amino)benzoic acid], the IC50 was above 10 µM in assay [1] and 0.225 µM in assay [2] (Homo sapiens, T47D, 72 h).

For `Cc1cc([C@@H](C)Nc2ccccc2C(=O)O)c2nc(N3CCN(c4cccc(C#N)c4)C[C@H]3C)c(C)c(=O)n2c1` [Example 11-87, 2-(((R)-1-(2-((R)-4-(3-cyanophenyl)-2-methylpiperazin-1-yl)-3,7-dimethyl-4-oxo-4H-pyrido[1,2-a]pyrimidin-9-yl)ethyl)amino)benzoic acid], the IC50 in assay [1] was above 10 µM; in assay [2] (Homo sapiens, T47D, 72 h) it was 0.156 µM.

`CO[C@H]1CN(c2nc3c([C@@H](C)Nc4ccccc4C(=O)O)cc(C)cn3c(=O)c2C#N)CC1(F)F` [Example 11-116, 2-(((R)-1-(3-cyano-2-((S)-3,3-difluoro-4-methoxypyrrolidin-1-yl)-7-methyl-4-oxo-4H-pyrido[1,2-a]pyrimidin-9-yl)ethyl)amino)benzoic acid]: the IC50 in assay [1] is above 10 µM; in assay [2] (Homo sapiens, T47D, 72 h), 0.156 µM.

As to `Cc1cc([C@@H](C)Nc2ccccc2C(=O)O)c2nc(N3CCn4c(nnc4C(F)(F)F)C3)c(C#N)c(=O)n2c1` [Example 11-216, (R)-2-((1-(3-cyano-7-methyl-4-oxo-2-(3-(trifluoromethyl)-5,6-dihydro-[1,2,4]triazolo[4,3-a]pyrazin-7(8H)-yl)-4H-pyrido[1,2-a]pyrimidin-9-yl)ethyl)amino)benzoic acid], the IC50 in assay [1] was above 10 µM; in assay [2] (Homo sapiens, T47D, 72 h), above 10 µM.

The term IC50 denotes the concentration that inhibits the measured activity by half.

The values are drawn from patent publication US20260078120A1, “SUBSTITUTED PYRIDOPYRIMIDINONES” (MIRATI THERAPEUTICS, INC., priority 2022, published 2026).
